Assay results reported in publication PMC9756503, “Pharmacodynamic properties for inhibition of cAMP- and cGMP elimination by pentoxifylline remain unaltered in vitro during hypothermia” (Scandinavian Journal of Trauma, Resuscitation and Emergency …, 2022).
Like-named read-outs stand apart in the source and are kept apart here.

Key:
Recombinant human PDE3 = assay: Inhibition of PDE3-mediated enzymatic breakdown of cAMP; format: biochemical; details: for Ki: Cheng-Prusoff; for [PDE3-inhibition]/[PDE5-inhibition] / [PDE3-inhibition]/[cAMP-efflux inhibition]: ratio between IC50-values
Method: (§1) Assessment of pentoxifyllines ability to inhibit the phosphodiesterase enzymes were performed by incubating cAMP or cGMP with seven different concentrations of pentoxifylline. The concentrations were increasing by a factor of 10 ranging from 1.00 nM to 1.00 mM. For PDE3 assessment, the incubation solution included cAMP and for PDE5 assessment it included cGMP. Experiments were performed in triplicates each day at three separate days - in total 9 parallels. The reaction was started by adding either a solution containing 0.016 units/µg protein of PDE3 (Abcam, Cambridge UK), or 0.022 units/µg protein of PDE5 (Sigma-Aldrich, St. Louis, USA), to the Eppendorf tubes. Control samples were free of drug and was either with or without PDE3 or PDE5. This was done to assure that only the relevant PDE was responsible for breakdown of the cyclic nucleotide, as no other enzyme nor cellular material was added to the incubations. The incubation time was 30 min. Reaction was stopped by adding methanol to the tubes. Internal standard of cGMP/GMP or cAMP/AMP (Sigma-Aldrich, St. Louis, MO, USA, Germany and Toronto Research Chemicals Inc., Ontario, Canada) were added to each sample. 5 samples contained only known concentrations of cGMP/GMP or cAMP/AMP and served as calibrators. Samples were analyzed for cGMP/GMP and cAMP/AMP content, using MS [14, 15].
Quantification of cAMP/AMP, cGMP/GMP and pentoxifylline in PDE- and intracellular access experiments were performed with liquid chromatography tandem mass spectrometry (LC–MS/MS). Preparation of samples for LC–MS/MS-analysis is described in paragraphs above.
(§2) Analysis and graph production were performed in SigmaPlot 14.0 (Systat Software, San Jose, CA, USA.). Ability to inhibit the different elimination pathways, enzymes and efflux pumps, were calculated as IC50-values, as according to Chou. Ki-values were obtained by using the methods described by Cheng and Prustoff. Measurement of intracellular concentrations of drugs were adjusted for protein concentrations in each sample. The incubation concentrations were also adjusted for protein concentration in each sample to evaluate the access in percentage. […] The same analysis was performed for intracellular concentrations of pentoxifylline during hypothermia compared to baseline (37 °C). When data was not normally distributed ANOVA on ranks and Dunn`s post hoc test was performed. Data are presented as mean ± standard error of the mean (SEM). p-values were considered significant when < 0.05.

Recombinant human PDE5 = target: T1, Recombinant human PDE5 (Homo sapiens, UniProt O76074); assay: Inhibition of PDE5-mediated enzymatic breakdown of cGMP; format: biochemical; details: for Ki: Cheng-Prusoff; for [PDE5-inhibition]/[cGMP-efflux inhibition]: ratio between IC50-values
T1 construct: purchased Sigma-Aldrich
Method: as §1
Quantification of cAMP/AMP, cGMP/GMP and pentoxifylline in PDE- and intracellular access experiments were performed with liquid chromatography tandem mass spectrometry (LC–MS/MS). Preparation of samples for LC–MS/MS-analysis is described in paragraphs above. […] For GMP the method was linear from 2 nM to at least 2000 nM (r^2 > 0.998), and 10 nM to at least 5000 nM for pentoxifylline (r^2 > 0.998).
Analysis and graph production were performed in SigmaPlot 14.0 (Systat Software, San Jose, CA, USA.). Ability to inhibit the different elimination pathways, enzymes and efflux pumps, were calculated as IC50-values, as according to Chou. Ki-values were obtained by using the methods described by Cheng and Prustoff. Measurement of intracellular concentrations of drugs were adjusted for protein concentrations in each sample. The incubation concentrations were also adjusted for protein concentration in each sample to evaluate the access in percentage. Analysis of variance (ANOVA) with Holm-Sidak multiple comparison post-hoc test was performed to evaluate changes in IC50-values compared to baseline (37 °C) for all elimination pathways. The same analysis was performed for intracellular concentrations of pentoxifylline during hypothermia compared to baseline (37 °C). When data was not normally distributed ANOVA on ranks and Dunn`s post hoc test was performed. Data are presented as mean ± standard error of the mean (SEM). p-values were considered significant when < 0.05.

ABCC4 = target: T2, ABCC4 (Homo sapiens, UniProt O15439); assay: biochemical; format: biochemical; details: for Ki: Cheng-Prusoff, read-out: Ki for inhibition of cAMP-efflux; for [cAMP-efflux inhibition]/[cGMP-efflux inhibition]: ratio between IC50-values; for IC50: read-out: IC50 for inhibition of cAMP-efflux
T2 construct: inside-out vesicles (IOV)s where erythrocytes from healthy, human donors were sampled; endogenous in cells; host or cells: inside-out vesicles from erythrocytes of healthy human donors
T2 sequence (O15439 1-1325): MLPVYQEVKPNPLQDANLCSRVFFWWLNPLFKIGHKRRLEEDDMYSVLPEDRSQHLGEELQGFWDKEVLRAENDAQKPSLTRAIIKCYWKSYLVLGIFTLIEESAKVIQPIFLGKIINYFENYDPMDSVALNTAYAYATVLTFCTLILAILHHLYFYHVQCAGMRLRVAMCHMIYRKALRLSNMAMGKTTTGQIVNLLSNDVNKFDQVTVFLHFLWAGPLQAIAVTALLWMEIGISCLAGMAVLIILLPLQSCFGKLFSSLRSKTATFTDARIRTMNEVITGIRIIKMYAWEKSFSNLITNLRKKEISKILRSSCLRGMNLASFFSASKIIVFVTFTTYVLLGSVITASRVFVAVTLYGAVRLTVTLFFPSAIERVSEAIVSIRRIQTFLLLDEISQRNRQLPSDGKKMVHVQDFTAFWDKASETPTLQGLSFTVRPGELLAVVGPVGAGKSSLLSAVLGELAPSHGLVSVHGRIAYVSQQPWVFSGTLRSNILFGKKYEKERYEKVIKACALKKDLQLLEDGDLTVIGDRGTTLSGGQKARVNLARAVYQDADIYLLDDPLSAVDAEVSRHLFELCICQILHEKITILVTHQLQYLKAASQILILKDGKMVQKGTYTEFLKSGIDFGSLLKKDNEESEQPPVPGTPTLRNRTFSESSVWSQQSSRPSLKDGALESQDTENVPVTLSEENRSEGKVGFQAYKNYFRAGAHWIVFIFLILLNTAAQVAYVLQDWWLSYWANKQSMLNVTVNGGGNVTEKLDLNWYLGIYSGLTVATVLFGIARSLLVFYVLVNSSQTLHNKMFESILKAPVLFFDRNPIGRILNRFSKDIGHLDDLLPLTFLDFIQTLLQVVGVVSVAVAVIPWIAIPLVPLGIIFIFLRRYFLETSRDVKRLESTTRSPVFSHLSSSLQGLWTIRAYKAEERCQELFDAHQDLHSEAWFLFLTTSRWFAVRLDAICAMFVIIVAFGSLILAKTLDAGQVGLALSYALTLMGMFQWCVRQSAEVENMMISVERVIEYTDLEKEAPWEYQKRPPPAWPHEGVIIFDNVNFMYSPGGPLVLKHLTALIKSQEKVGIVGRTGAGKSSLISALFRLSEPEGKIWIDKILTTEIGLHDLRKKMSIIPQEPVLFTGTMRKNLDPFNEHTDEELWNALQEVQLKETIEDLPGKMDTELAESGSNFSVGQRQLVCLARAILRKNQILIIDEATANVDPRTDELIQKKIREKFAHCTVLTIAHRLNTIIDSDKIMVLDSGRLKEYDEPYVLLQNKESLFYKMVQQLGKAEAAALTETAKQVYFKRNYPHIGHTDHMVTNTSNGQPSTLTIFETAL
Method: (§3) Cellular efflux was estimated with inside-out vesicles (IOV)s where erythrocytes from healthy, human donors were sampled. Donors were pre-screened and only admitted as donors by Blodbanken UNN (Department of Immunohematology and Transfusion Medicine, University Hospital of North Norway) if they were healthy. The erythrocytes were separated from plasma by centrifugation and washed. Inside-out vesicles were prepared according to Orvoll et al. with minor modifications. Percentage IOV was verified using acetylcholinesterase accessibility test. Batches of IOVs used in the parallels were made 8 times, including blood from a total of 35 healthy donors.
(§4) IOVs were then incubated with or without 2 mM ATP and 7 different concentrations of pentoxifylline increasing by a factor of 10 ranging from 1.00 nM to 1.00 mM. The incubation solutions also included radioactive labeled [^3H]-cGMP or [^3H]-cAMP (Perkin Elmer, Boston, MA, USA), at a concentration of respectively 2 µM and 20 µM. [^3H]-cAMP was used to assess ABCC4-inhibition and [^3H]-cGMP for ABCC5-inhibition. The assays were performed in triplicates at 3 different days: In total 9 parallels were performed to calculate results for each concentration of pentoxifylline at all temperatures. Incubation time of 60 min was chosen to ensure sufficient quality of the samples for each parallel. The transport was stopped by adding ice cold buffer. The IOVs were then filtered through a nitrocellulose membrane (Bio-Rad Laboratories, Feldkirchen Germany), and the membrane was dried. The dried membranes were later added scintillation fluid and radioactivity was measured using a Packard TopCount NXT (Packard, Downers Grove, IL, USA).
as §2

ABCC5 = target: T3, ABCC5 (Homo sapiens, UniProt O15440); assay: Inhibition of [3H]-cGMP efflux in erythrocyte inside-out vesicles; format: biochemical; details: for Ki: Cheng-Prusoff
T3 construct: inside-out vesicles (IOV)s where erythrocytes from healthy, human donors were sampled; endogenous in cells; host or cells: inside-out vesicles from erythrocytes of healthy human donors
T3 sequence (O15440 whole entry): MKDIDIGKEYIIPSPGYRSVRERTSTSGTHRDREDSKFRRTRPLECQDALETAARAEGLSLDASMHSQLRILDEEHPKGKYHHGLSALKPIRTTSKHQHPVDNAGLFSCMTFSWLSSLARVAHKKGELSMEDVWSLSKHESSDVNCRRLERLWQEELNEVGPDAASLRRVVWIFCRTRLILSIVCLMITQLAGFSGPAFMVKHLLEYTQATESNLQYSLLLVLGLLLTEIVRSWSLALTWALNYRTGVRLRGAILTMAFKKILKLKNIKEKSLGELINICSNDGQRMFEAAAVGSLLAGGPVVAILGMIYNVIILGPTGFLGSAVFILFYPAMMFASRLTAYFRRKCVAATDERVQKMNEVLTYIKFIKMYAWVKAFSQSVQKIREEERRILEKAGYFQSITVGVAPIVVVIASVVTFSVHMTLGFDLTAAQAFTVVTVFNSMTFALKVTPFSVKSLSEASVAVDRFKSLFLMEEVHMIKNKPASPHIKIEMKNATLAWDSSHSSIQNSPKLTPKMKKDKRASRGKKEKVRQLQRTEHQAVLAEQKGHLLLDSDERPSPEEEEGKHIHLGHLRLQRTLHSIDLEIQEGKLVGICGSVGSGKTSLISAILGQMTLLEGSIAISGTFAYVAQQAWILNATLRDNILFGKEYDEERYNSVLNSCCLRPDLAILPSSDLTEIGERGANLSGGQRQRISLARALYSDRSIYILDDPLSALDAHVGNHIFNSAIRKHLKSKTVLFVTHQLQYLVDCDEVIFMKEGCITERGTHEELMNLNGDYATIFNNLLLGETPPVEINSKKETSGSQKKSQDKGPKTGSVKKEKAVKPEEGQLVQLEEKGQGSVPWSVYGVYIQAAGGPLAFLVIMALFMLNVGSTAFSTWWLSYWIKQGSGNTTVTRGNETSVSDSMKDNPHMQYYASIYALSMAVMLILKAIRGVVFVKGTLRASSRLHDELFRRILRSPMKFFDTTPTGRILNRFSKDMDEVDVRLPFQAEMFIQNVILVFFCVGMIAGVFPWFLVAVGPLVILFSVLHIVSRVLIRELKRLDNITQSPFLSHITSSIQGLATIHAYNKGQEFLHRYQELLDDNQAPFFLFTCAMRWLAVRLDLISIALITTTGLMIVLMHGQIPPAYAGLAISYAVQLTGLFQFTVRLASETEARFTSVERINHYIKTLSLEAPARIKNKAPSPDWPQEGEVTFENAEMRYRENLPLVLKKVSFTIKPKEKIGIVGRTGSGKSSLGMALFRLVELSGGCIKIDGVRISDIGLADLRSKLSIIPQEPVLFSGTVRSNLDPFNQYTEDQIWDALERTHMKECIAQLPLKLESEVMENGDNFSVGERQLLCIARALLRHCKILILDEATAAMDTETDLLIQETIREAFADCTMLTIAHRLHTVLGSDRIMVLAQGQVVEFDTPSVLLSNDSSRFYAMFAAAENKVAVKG
Method: as §3, §4, §2

[1] = design: method as in PMID 26870389; details: review on cardiovascular effects; cited from earlier work

## CC(=O)CCCCn1c(=O)c2c(ncn2C)n(C)c1=O [pentoxifylline]
Recombinant human PDE3; 20 °C
  IC50: 31 ± 9.47 µM
  Ki: 1420 ± 434 nM
  [PDE3-inhibition]/[PDE5-inhibition]: 0.788
Recombinant human PDE3; 24 °C
  IC50: 29.2 ± 4.72 µM
  Ki: 1340 ± 216 nM
  [PDE3-inhibition]/[PDE5-inhibition]: 1.16
Recombinant human PDE3; 28 °C
  IC50: 22.4 ± 6.36 µM
  Ki: 1020 ± 291 nM
  [PDE3-inhibition]/[PDE5-inhibition]: 0.920
  [PDE3-inhibition]/[cAMP-efflux inhibition]: 11.6
Recombinant human PDE3; 32 °C
  IC50: 26.7 ± 4.7 µM
  Ki: 1220 ± 215 nM
  [PDE3-inhibition]/[PDE5-inhibition]: 1.72
  [PDE3-inhibition]/[cAMP-efflux inhibition]: 13.3
Recombinant human PDE3; 34 °C
  IC50: 14.2 ± 1.51 µM
  Ki: 651 ± 69 nM
  [PDE3-inhibition]/[PDE5-inhibition]: 1.33
  [PDE3-inhibition]/[cAMP-efflux inhibition]: 3.94
Recombinant human PDE3; 37 °C
  IC50: 15.8 ± 4.25 µM
  Ki: 723 ± 195 nM
  [PDE3-inhibition]/[PDE5-inhibition]: 2.05
  [PDE3-inhibition]/[cAMP-efflux inhibition]: 11.9
Recombinant human PDE5; 20 °C
  IC50: 39.4 ± 10.9 µM
  Ki: 10 ± 2.78 µM
  [PDE5-inhibition]/[cGMP-efflux inhibition]: 102
Recombinant human PDE5; 24 °C
  IC50: 25.2 ± 6.57 µM
  Ki: 6.4 ± 1.67 µM
  [PDE5-inhibition]/[cGMP-efflux inhibition]: 50.2
Recombinant human PDE5; 28 °C
  IC50: 24.3 ± 5.58 µM
  Ki: 6.17 ± 1.42 µM
  [PDE5-inhibition]/[cGMP-efflux inhibition]: 28.6
Recombinant human PDE5; 32 °C
  IC50: 15.5 ± 0.753 µM
  Ki: 3.94 ± 0.191 µM
  [PDE5-inhibition]/[cGMP-efflux inhibition]: 21.4
Recombinant human PDE5; 34 °C
  IC50: 10.7 ± 1.92 µM
  Ki: 2.71 ± 0.487 µM
  [PDE5-inhibition]/[cGMP-efflux inhibition]: 12.0
Recombinant human PDE5; 37 °C
  IC50: 7.7 ± 0.265 µM
  Ki: 1.95 ± 0.067 µM
  [PDE5-inhibition]/[cGMP-efflux inhibition]: 14.5
ABCC4; 28 °C
  Ki: 918 ± 465 nM
  [cAMP-efflux inhibition]/[cGMP-efflux inhibition]: 2.27
  IC50: 1930 ± 1110 nM
ABCC4; 32 °C
  Ki: 1160 ± 526 nM
  [cAMP-efflux inhibition]/[cGMP-efflux inhibition]: 2.78
  IC50: 2010 ± 819 nM
ABCC4; 34 °C
  Ki: 2030 ± 1460 nM
  [cAMP-efflux inhibition]/[cGMP-efflux inhibition]: 4.04
  IC50: 3610 ± 2590 nM
ABCC4; 37 °C
  Ki: 805 ± 343 nM
  [cAMP-efflux inhibition]/[cGMP-efflux inhibition]: 2.50
  IC50: 1330 ± 566 nM
ABCC4; temperatures below 28 °C (24 and 20 °C)
  Inhibition of cAMP-efflux (ABCC4-activity): no inhibition
ABCC5; 20 °C
  IC50: 388 ± 70 nM
ABCC5; 24 °C
  IC50: 502 ± 315 nM
  Ki: 320 ± 183 nM
ABCC5; 28 °C
  IC50: 851 ± 281 nM
  Ki: 481 ± 159 nM
ABCC5; 32 °C
  IC50: 724 ± 206 nM
  Ki: 409 ± 116 nM
ABCC5; 34 °C
  IC50: 893 ± 401 nM
  Ki: 505 ± 226 nM
ABCC5; 37 °C
  IC50: 531 ± 338 nM
  Ki: 300 ± 191 nM
[1]
  clinical serum concentrations: 1 to 10 µM
